SMILES strings stand for the structures. Some results are limits rather than exact numbers.

The record followed here is US10940139B2, “Compounds that interact with the Ras superfamily for the treatment of cancers, inflammatory diseases, rasopathies, and fibrotic disease” (Shy Therapeutics LLC, priority 2017, dated 2021).

One assay relates to MAPK phosphorylation in PANC-1 pancreatic cancer cell line. Put plainly: MAPK cell-based phosphorylation assay (cell-direct ELISA, EGF stimulation). Particulars: Homo sapiens. The protocol:
Cell lines: Tumor-derived pancreatic cancer cell lines PANC-1 were purchased from ATCC and were maintained according to ATCC recommendation.
Method: Cells were plated at 7500 cells/well density in 96-wells plate, starved over night, and the small molecules to be tested were added to the cells in the final concentration of 30 μM with 0.3% DMSO for 6 hours incubation at 37° C. For IC50 value determination, serial dilutions of compounds were added to cells under the same conditions. Next, cells were stimulated with 1.5 ng/ml EGF for 15 min. followed by cell fixation with 4% Formaldehyde in PBS at RT for 20 min. Phosphorylation level of MAPK was determined by Cell-direct ELISA.
Cell-direct ELISA: For each well, cells were permeabilized with PBS-Triton 0.1%, quenched with H2O2 0.6% in PBS-Triton 0.1%, and probed with anti-phospho-MAPK antibodies (R&D Systems) followed by HRP-conjugated secondary antibody (Jackson Immunoresearch, West Grove, Pa.). Next, a solution 50 μM of the fluorescent substrate AmpliFlu Red (Sigma) was added and incubated at RT for 20 min. At the end of the incubation time, fluorescence was measured at 595 nm on a microplate reader (AF2200; Eppendorf, Inc., Hamburg, Germany).
Background: In an ELISA, binding on a coated surface is turned into a signal by an enzyme label.
A word on the IC50: it is the point on the concentration scale where inhibition reaches its midpoint. Read a high IC50 as weaker potency. Compound `O=C(CN1CCN(c2nc(-c3ccccn3)nc3sc(-c4ccccc4)cc23)CC1)N1CCCC1` [drawing 1091] had a half-maximal inhibitory concentration (IC50) of 2 to 10 µM.
`Oc1nc(-c2ccccn2)nc2c(-c3ccccc3F)csc12` [drawing 1207]: the IC50 was 2 to 10 µM.
For the compound `O=C(c1csc2c(O)nc(-c3ccccn3)nc12)N1CCN(Cc2cccc(O)c2)CC1` [drawing 1125], the half-inhibitory concentration (IC50) was greater than 30 µM.
Turning to `O=C(c1csc2c(O)nc(-c3ccccn3)nc12)N1CCOC(c2nccs2)C1` (stereo not shown) [drawing 1129], the half-inhibitory concentration (IC50) is greater than 30 µM.
Same read-out and setting: under `Oc1nc(-c2ccccn2)nc2scc(Br)c12` [drawing 1080] stands 2 to 10 µM.

The assay is the same for the next values; noted with them: Homo sapiens, * = tested at 10 μM.
What is called inhibition is the percentage by which the read-out fell short of the control. Consider `COc1ccc(-c2c(C)sc3c(O)nc(-c4nccn4C)nc23)cn1` [drawing 1361], for which the inhibition at 10 µM lay within 25 to 50%.
The same measure, in the same setting: under `COc1ccc(-c2cc3nc(-c4ccccn4)nc(O)c3s2)cc1` [drawing 1323] stands 1 to 25%.
Still for that read-out and setting: with `CC(C)COc1ccc(-c2csc3c(O)nc(-c4nccn4C)nc23)cn1` [drawing 1372] the figure was 25 to 50%; with `COc1nc(-c2ccccn2)nc2c(C3CCCCC3)csc12` [drawing 1251], 1 to 25%; with `Oc1nc(-c2ccncn2)nc2c(-c3cccc(C(F)(F)F)c3)csc12` [drawing 1367], 1 to 25%.
Same read-out and setting: with `CC(CO)Nc1nc(-c2nccn2C)nc2sc(-c3ccccc3)c(-c3ccccc3)c12` (stereo not shown) [drawing 1338] the figure was 25 to 50%; with `Cc1sc2c(O)nc(-c3ccccn3)nc2c1C(=O)N1CCN(c2ccccc2)CC1C` (stereo not shown) [drawing 1270], 1 to 25%.
With `Cc1c(-c2csc3c(O)nc(-c4ccccn4)nc23)cnn1C` [drawing 1266], at 10 µM the inhibition was 0%.
The same measure, in the same setting: with `CC(C)Oc1ccc(-c2csc3c(O)nc(-c4nccn4C)nc23)cc1F` [drawing 1369] the figure was 25 to 50%.
Compound `COc1cnc(CNC(=O)c2sc3c(O)nc(-c4ccccn4)nc3c2C)[nH]c1=O` [drawing 1284] gave an inhibition at 10 µM of 0%.
Turning to `Cn1ccnc1-c1nc(O)c2scc(-c3ccccc3Cl)c2n1` [drawing 1375], the inhibition at 10 µM is 25 to 50%.
On the same count and under the same terms, under `COCCNc1nc(-c2nccn2C)nc2sc(-c3ccccc3)c(-c3ccc(OC)cc3)c12` [drawing 1349] stands 76 to 100%; under `COCCNc1nc(-c2nccn2C)nc2sc(-c3ccccc3)c(-c3ccccn3)c12` [drawing 1382], 51 to 75%; under `Oc1nc(-c2ccccn2)nc2c(-c3ccccc3)c(-c3ccncc3)sc12` [drawing 1308], 0%.
Same read-out and setting: with `Cn1ccnc1-c1nc(NCCOC2CC2)c2c(-c3ccccc3)c(-c3ccccc3)sc2n1` [drawing 1336] the figure was 76 to 100%; with `Oc1nc(-c2ccccn2)nc2c(-c3ccccc3F)csc12` [drawing 1207], 76 to 100%.
On the same count and under the same terms, under `O=C(CCc1nn[nH]n1)Nc1nc(-c2ccccn2)nc2sccc12` [drawing 1227] stands 25 to 50%; under `COc1cnc(CNC(=O)c2csc3c(O)nc(-c4ccccn4)nc23)[nH]c1=O` [drawing 1280], 0%; under `COc1cnc(-c2cnc[nH]2)nc1O` [drawing 1276], 1 to 25%.
The compound `Oc1nc(-c2ccccn2)nc2c(C3CCCC3)csc12` [drawing 1256] displayed an inhibition at 10 µM of 76 to 100%.
Still for that read-out and setting: under `Nc1nc(-c2ccccn2)nc2scc(C(=O)O)c12` [drawing 1242] stands 1 to 25%; under `Cn1ccnc1-c1nc(O)c2sc(-c3ccccc3)c(-c3cccc(C(F)(F)F)c3)c2n1` [drawing 1352], 0%; under `Cn1cnc(-c2nc(O)c3c(-c4ccccc4)c(-c4ccc(CNC(=O)OC(C)(C)C)cc4)sc3n2)c1` [drawing 1297], 0%.
Still for that read-out and setting: with `COc1cnc(CNC(=O)c2csc3nc(-c4ccccn4)nc(N)c23)[nH]c1=O` [drawing 1277] the figure was 25 to 50%; with `Cc1sc2c(O)nc(-c3nccn3C)nc2c1-c1ccccc1Cl` [drawing 1362], 1 to 25%.
Take `Oc1nc(-c2ccccn2)nc2c(-c3ccc4c(c3)OCO4)csc12` [drawing 1218]: the inhibition at 10 µM lay within 76 to 100%.

The same assay, now with this note: Homo sapiens, at 30 μM.
Take `CNC(=O)CN1CCN(c2nc(-c3ccccn3)nc3scc(-c4ccccc4)c23)CC1` [drawing 1092]: the inhibition at 30 µM was in the range of 1 to 25%.
In turn, `NC(=O)Cn1cnc2nc(-c3ccccn3)nc(N3CCOCC3)c21` [drawing 1184] returned an inhibition at 30 µM of 1 to 25%.
As to `O=C(Nc1nnc(-c2ccccn2)[nH]1)c1ccn(-c2ccccc2)n1` [drawing 998], the inhibition at 30 µM fell in the range of 1 to 25%.
In turn, `Nc1nc(-c2ccccn2)nc2scc(-c3ccccc3)c12` [drawing 1181] showed an inhibition at 30 µM of 1 to 25%.
As for `O=C(c1csc2c(O)nc(-c3ccccn3)nc12)N1CCNC(c2cccc(F)c2)C1` (stereo not shown) [drawing 1130], the inhibition at 30 µM is 1 to 25%.
The same measure, in the same setting: with `O=C(CN1CCN(c2nc(-c3ccccn3)nc3sc(-c4ccccc4)cc23)CC1)N1CCCC1` [drawing 1091] the figure was 76 to 100%.
`O=C(c1csc2c(O)nc(-c3ccccn3)nc12)N1CCN(Cc2ccc(O)c(Cl)c2)CC1` [drawing 1147] registered an inhibition at 30 µM of 25 to 50%.
Same read-out and setting: with `Cc1cnc(-c2ccccn2)nc1NC(=O)COCc1ccnc(O)c1` [drawing 1175] the figure was 25 to 50%.
Still for that read-out and setting: under `CC(C)NC(=O)Nc1cccc(C(=O)Nc2nnc(-c3ccccn3)[nH]2)c1` [drawing 993] stands 1 to 25%.
Take `O=C(CCc1c[nH]c2ccccc12)Nc1nnc(-c2ccccn2)[nH]1` [drawing 1001]: the inhibition at 30 µM is 25 to 50%.
Still for that read-out and setting: under `Oc1nc(-c2ccccn2)nc2[nH]cnc12` [drawing 1076] stands 1 to 25%; under `O=C(c1csc2c(O)nc(-c3ccccn3)nc12)N1CCNC(c2ccc(F)cc2)C1` (stereo not shown) [drawing 1167], 1 to 25%; under `Cc1ccc(CC(=O)Nc2nnc(-c3ccccn3)[nH]2)cn1` [drawing 1012], 1 to 25%.
The compound `O=C(Nc1nnc(-c2ccccn2)[nH]1)C1CCCC1` [drawing 1008] came in with an inhibition at 30 µM of 1 to 25%.
Same read-out and setting: under `CC(C)(C)c1nc(C(=O)Nc2nnc(-c3ccccn3)[nH]2)cs1` [drawing 1023] stands 1 to 25%.
As to `O=C(Nc1nnc(-c2ccccn2)[nH]1)c1ccc2ccccc2n1` [drawing 1002], the inhibition at 30 µM is 1 to 25%.
On the same count and under the same terms, under `COCCNc1nc(-c2ccccn2)nc2scc(-c3ccccc3)c12` [drawing 1108] stands 76 to 100%; under `COc1ccnc(-c2nc(O)c3c(Cl)csc3n2)c1` [drawing 1162], 1 to 25%.
Same read-out and setting: with `O=c1nc(-c2ccccn2)[nH]c2sc(-c3ccccc3)cc12` [drawing 1037] the figure was 25 to 50%; with `O=C(c1csc2c(O)nc(-c3ccccn3)nc12)N1CCN(Cc2cccc(O)c2)CC1` [drawing 1125], 51 to 75%; with `O=C(C1CCN(c2nc(-c3ccccn3)nc3scc(-c4ccccc4)c23)CC1)N1CCCCC1` [drawing 1105], 1 to 25%.
For `CN(Cc1cnn(C)c1)c1nc(-c2ccccn2)nc2scc(-c3ccccc3)c12` [drawing 1089], the inhibition at 30 µM lay in the range of 25 to 50%.
`O=C(CCc1cnn(-c2ccccc2)c1)Nc1nnc(-c2ccccn2)[nH]1` [drawing 992]: the inhibition at 30 µM fell in the range of 25 to 50%.
Still for that read-out and setting: with `O=C(c1csc2c(O)nc(-c3ccccn3)nc12)N1CCOC(c2nccs2)C1` (stereo not shown) [drawing 1129] the figure was 25 to 50%; with `O=C(c1csc2c(O)nc(-c3ccccn3)nc12)N1CCOC(c2ccccc2Cl)C1` (stereo not shown) [drawing 1149], 1 to 25%; with `O=C(c1csc2c(O)nc(-c3ccccn3)nc12)N1CCOC(c2ccc(Cl)cc2)C1` (stereo not shown) [drawing 1127], 1 to 25%.
Regarding `Oc1nc(-c2ccccn2)nc2scc(Br)c12` [drawing 1080], the inhibition at 30 µM was 76 to 100%.
